According to ChEMBL document CHEMBL1201862, “PubChem BioAssay data set” (2004):
Active and inactive are the calls of the source.

Key:
[1] = Trypanosoma cruzi growth suppression in host cells – NIH3T3 host cells, beta-gal luminescence, confirmation (AID 2044); format: functional, cell-based;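 note: intracellular parasites grown in NIH/3T3 mouse fibroblasts as host cells; luminescent beta-galactosidase reporter signal from transgenic T. cruzi replicating inside host cells; inhibitors lower the luminescence signal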
[2] = NIH3T3 cell viability loss – ATP luminescence, mouse fibroblasts, counter-screen, dose response (AID 2010); format: functional, cell-based;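 note: cells exposed to compound for about 90 hours before reading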
CAAX prenyl protease 2 [3] = target: T1, CAAX prenyl protease 2 (Saccharomyces cerevisiae S288c, UniProt Q03530); format: biochemical
T1 sequence (Q03530 whole entry): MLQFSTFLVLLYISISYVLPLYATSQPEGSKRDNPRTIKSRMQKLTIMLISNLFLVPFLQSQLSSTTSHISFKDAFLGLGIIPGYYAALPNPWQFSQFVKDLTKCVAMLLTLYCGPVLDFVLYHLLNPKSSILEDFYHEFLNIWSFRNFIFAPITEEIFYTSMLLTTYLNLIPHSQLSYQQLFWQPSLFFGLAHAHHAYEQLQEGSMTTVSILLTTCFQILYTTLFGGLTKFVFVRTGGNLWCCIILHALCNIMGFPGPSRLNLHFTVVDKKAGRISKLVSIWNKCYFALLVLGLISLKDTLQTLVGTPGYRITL

[4] = target: Delta-type opioid receptor (Homo sapiens, UniProt P41143); assay: Counterscreen for agonists of heterodimerization of the mu 1 (OPRM1) and delta 1 (OPRD1) opioid receptors: Luminescence-based cell-based high throughput dose response assay to identify agonists of OPRD1 homodimerization. [Related pubchem assays (depositor defined):AID504326, AID504355, AID504692, AID504904, AID504905]; format: functional
Chain of Delta-type opioid receptor (P41143 whole entry): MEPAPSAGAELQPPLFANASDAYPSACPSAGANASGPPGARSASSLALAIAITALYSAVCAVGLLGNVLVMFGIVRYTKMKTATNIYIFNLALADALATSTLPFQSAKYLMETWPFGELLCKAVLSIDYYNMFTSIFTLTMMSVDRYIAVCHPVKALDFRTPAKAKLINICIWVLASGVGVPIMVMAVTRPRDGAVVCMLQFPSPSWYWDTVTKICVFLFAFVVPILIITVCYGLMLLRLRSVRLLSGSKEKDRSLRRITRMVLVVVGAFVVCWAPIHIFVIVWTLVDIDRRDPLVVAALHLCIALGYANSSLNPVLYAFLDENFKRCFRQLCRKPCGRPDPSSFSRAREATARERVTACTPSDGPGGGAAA

Mu-type opioid receptor = Mu-type opioid receptor (Homo sapiens, UniProt P35372); assay: Counterscreen for agonists of heterodimerization of the mu 1 (OPRM1) and delta 1 (OPRD1) opioid receptors: Luminescence-based cell-based high throughput dose response assay to identify agonists of OPRM1 homodimerization.; format: functional;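 note: U2OS cells expressing OPRM1 and beta-arrestin as split beta-galactosidase partners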
Chain of Mu-type opioid receptor (P35372 whole entry): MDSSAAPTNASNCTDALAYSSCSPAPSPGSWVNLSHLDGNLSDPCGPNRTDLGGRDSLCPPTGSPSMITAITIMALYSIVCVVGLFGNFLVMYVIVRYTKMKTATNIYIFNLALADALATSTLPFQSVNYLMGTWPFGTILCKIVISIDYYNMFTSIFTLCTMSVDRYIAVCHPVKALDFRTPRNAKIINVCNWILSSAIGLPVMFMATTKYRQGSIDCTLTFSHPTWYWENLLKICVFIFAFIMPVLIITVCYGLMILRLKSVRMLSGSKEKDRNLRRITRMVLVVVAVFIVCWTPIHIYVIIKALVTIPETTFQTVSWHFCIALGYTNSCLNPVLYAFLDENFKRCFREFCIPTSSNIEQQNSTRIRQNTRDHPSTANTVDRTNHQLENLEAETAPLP

[5] = target: 5-hydroxytryptamine receptor 5A (Homo sapiens, UniProt P47898); assay: Counterscreen for agonists of OPRM1-OPRD1 heterodimerization: luminescence-based cell-based high throughput dose response assay to identify agonists of 5-hydroxytryptamine (serotonin) 5A receptor (HTR5A). [Related pubchem assays (depositor defined):AID504326, AID504355, AID504692, AID504904, AID504905]; format: functional
Chain of 5-hydroxytryptamine receptor 5A (P47898 whole entry): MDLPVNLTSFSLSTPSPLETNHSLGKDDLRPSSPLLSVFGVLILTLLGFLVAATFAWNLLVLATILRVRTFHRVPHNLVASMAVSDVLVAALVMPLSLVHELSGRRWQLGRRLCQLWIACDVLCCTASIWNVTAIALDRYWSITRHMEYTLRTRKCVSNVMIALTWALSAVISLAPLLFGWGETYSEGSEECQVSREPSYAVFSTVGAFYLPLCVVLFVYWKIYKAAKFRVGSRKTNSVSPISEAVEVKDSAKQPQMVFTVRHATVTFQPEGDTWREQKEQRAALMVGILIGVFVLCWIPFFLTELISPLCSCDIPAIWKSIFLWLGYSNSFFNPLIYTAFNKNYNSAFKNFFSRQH

CAAX prenyl protease 2 [6] = target: CAAX prenyl protease 2 (Homo sapiens, UniProt Q9Y256); assay: inhibition of Ras-converting CAAX protease Rce1 – biochemical, yeast membranes, quenched-peptide fluorescence, cherry-pick, dose response (AID 588849)
Chain of CAAX prenyl protease 2 (Homo sapiens, UniProt Q9Y256) (Q9Y256 whole entry): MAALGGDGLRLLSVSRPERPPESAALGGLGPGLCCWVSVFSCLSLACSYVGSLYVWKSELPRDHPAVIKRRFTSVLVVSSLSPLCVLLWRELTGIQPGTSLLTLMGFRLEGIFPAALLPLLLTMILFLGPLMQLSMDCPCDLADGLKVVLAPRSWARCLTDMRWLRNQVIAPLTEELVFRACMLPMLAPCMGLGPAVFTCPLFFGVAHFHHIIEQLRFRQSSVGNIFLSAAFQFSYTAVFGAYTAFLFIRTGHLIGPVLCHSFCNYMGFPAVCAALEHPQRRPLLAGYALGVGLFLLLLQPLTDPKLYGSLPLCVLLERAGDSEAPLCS

[7] = target: Voltage-gated inwardly rectifying potassium channel KCNH2 (Homo sapiens, UniProt Q12809); details: Potency;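 note: confirmatory quantitative high-throughput screen measuring inhibition of hERG channel activity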
Cysteine protease ATG4B = Cysteine protease ATG4B (Homo sapiens, UniProt Q9Y4P1); format: functional;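 note: Fluorescence-based dose-response confirmation assay measuring inhibition of ATG4B activity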
Chain of Cysteine protease ATG4B (Q9Y4P1 whole entry): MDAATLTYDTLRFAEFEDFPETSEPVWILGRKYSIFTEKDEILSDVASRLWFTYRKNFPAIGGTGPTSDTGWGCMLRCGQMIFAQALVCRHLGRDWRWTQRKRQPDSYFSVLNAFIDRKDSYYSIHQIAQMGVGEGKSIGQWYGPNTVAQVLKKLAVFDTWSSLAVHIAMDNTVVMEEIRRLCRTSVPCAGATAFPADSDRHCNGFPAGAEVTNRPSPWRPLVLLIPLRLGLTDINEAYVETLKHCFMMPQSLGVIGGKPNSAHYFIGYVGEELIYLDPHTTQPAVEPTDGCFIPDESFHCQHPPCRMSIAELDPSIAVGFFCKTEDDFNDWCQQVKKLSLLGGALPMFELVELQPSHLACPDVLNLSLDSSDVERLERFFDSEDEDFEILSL

Phospholipase A2 = Phospholipase A2 (Homo sapiens, UniProt P04054); format: functional;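 note: confirmatory dose-response counterscreen on phospholipase A2, testing hits that came from an ultra-high-throughput screen for ATG4B inhibitors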
Chain of Phospholipase A2 (P04054 whole entry, the tested form may be a part): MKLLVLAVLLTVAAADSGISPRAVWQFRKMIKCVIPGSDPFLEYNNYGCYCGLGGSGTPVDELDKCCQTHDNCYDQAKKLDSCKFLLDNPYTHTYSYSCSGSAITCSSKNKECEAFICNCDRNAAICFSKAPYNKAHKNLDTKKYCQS

[8] = target: Envelope glycoprotein gp160 (Human immunodeficiency virus 1, UniProt Q6QLK5); assay: cell-free HIV fusion peptide-binding blockers – biochemical, uHTS, fluorescence dequenching, […] (AID 1986)
Chain of Envelope glycoprotein gp160 (Q6QLK5 whole entry, the tested form may be a part): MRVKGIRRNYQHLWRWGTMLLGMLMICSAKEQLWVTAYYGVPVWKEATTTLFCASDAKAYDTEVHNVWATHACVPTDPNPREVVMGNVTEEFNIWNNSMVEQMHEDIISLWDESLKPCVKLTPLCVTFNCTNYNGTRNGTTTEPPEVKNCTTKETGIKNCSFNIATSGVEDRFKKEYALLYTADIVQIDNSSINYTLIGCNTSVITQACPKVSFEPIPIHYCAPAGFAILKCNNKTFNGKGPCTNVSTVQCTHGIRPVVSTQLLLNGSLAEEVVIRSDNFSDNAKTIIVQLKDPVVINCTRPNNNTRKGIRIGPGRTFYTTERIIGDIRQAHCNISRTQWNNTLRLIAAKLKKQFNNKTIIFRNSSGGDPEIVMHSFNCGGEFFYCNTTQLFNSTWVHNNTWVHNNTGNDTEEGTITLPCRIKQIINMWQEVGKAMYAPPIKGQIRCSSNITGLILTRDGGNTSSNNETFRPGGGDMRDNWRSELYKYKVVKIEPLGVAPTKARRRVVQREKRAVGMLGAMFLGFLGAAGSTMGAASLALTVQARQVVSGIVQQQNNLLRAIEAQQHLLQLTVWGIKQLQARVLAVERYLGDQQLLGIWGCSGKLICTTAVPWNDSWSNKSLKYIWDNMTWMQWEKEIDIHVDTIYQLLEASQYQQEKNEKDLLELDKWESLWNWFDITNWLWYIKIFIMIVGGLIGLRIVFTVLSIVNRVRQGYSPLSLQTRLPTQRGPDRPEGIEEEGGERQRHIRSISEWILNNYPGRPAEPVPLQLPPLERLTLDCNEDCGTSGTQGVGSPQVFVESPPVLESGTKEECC

[9] = NIH-3T3 fibroblast cytotoxicity, dose response, cytotoxicity control, cell-based, fluorescence, Alamar Blue, secondary assay (AID 2327); format: functional;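 note: NIH-3T3 mouse fibroblasts cultured with fluconazole at 8 µg/mL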
[10] = fluconazole-exposed Candida albicans growth modulators – fluorescence, retest, confirmation (AID 2467); format: functional, cell-based
[11] = target: T2, Short transient receptor potential channel 4 (Mus musculus, UniProt Q9QUQ5); assay: block of DAMGO-driven TRPC4 calcium entry – cell-based, HEK293 TRPC4/mu-opioid, Fluo-4 calcium, dose response (AID 434942); format: functional;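 note: potency of inhibitors blocking the TRPC4 calcium response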
T2 sequence (Q9QUQ5 whole entry): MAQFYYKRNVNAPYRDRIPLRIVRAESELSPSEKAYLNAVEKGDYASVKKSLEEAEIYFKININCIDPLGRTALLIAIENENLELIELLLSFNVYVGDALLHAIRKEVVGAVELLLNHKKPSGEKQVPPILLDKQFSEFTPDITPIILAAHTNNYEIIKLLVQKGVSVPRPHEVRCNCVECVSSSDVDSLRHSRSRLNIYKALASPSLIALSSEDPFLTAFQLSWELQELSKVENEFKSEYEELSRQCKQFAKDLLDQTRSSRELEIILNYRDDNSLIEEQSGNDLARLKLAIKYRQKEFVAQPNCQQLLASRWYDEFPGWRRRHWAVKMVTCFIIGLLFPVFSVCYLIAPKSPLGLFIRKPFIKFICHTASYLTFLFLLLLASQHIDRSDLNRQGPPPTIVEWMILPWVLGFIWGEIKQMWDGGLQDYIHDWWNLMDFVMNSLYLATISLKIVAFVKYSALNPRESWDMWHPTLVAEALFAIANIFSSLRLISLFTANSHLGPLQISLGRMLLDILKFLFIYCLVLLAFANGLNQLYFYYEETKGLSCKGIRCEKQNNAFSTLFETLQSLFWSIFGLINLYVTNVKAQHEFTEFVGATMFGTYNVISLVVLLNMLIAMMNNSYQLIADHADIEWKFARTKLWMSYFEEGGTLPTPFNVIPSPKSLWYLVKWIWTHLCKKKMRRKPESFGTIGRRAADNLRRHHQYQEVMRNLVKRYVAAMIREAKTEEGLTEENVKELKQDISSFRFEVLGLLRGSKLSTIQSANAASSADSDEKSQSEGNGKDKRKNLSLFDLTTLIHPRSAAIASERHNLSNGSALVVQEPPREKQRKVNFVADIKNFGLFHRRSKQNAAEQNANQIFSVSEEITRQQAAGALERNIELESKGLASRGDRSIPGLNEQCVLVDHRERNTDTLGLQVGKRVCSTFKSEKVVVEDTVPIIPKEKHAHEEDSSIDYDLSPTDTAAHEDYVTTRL

Vero = assay: viability of Vero cells under compound – cytotoxicity control for flavivirus capping enzyme inhibitors (AID 588742); format: functional; details: Chlorocebus sabaeus
Genome polyprotein = Genome polyprotein (dengue virus type 2, UniProt P29990); assay: flavivirus cap methylation enzyme inhibition – biochemical, confirmation dose response, primary screen (AID 588689); format: functional
Chain of Genome polyprotein (P29990 2492-3391 limits assumed): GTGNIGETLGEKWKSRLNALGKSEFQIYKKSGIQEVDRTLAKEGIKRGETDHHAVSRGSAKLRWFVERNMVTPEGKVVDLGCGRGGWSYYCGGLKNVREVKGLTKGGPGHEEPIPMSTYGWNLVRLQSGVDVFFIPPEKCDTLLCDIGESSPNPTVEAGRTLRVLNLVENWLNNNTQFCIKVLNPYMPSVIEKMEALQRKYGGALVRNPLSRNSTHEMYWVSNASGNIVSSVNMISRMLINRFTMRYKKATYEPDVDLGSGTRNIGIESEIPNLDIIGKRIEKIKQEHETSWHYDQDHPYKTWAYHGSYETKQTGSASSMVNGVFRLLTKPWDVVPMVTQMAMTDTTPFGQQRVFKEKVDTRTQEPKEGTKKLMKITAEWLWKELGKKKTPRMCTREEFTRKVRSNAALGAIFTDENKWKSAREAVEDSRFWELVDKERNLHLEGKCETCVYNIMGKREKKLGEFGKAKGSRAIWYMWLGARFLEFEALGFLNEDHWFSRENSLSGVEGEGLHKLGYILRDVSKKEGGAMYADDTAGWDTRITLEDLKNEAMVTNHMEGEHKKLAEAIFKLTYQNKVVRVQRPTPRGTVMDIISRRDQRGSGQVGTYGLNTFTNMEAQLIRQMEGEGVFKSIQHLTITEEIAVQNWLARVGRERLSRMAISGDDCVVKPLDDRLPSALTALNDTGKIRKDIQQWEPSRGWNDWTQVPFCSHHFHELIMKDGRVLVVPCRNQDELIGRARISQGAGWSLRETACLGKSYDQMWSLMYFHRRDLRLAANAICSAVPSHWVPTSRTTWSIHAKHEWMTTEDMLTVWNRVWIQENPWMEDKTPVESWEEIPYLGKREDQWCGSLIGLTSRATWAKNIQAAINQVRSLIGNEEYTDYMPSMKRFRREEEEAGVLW

Candida albicans [12] = assay: fluconazole-resistant Candida strain growth inhibitors – CaCi-8 strain, dry powder, set 4, dose response (AID 488950); format: functional, organism-based
Candida albicans [13] = assay: C. albicans growth inhibition with fluconazole – CaCi-2 strain, Alamar Blue, dry powder, set 4, dose response (AID 488943); format: functional, organism-based
Candida albicans [14] = assay: resistant Candida growth with fluconazole co-treatment – CaCi-8 strain, Alamar Blue, dry powder, set 3, dose response (AID 488905); format: functional, organism-based
Candida albicans [15] = assay: Candida growth inhibition combined with fluconazole – CaCi-2 strain, Alamar Blue, dry powder, set 3, dose response (AID 488907); format: functional, organism-based
[16] = target: Dual specificity protein phosphatase 3 (Homo sapiens, UniProt P51452); assay: SAR VHR1 Fluorescent Assay for In Vitro dose response studies Set 3. [Related pubchem assays (depositor defined):AID1654, AID1661, AID1878]; format: functional
Chain of Dual specificity protein phosphatase 3 (P51452 whole entry, the tested form may be a part): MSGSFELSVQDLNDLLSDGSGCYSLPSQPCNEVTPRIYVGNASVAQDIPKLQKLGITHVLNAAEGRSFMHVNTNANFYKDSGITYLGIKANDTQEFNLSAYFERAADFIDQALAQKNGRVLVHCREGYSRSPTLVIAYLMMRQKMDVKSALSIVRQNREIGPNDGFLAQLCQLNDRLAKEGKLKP

Hexokinase-1 = Hexokinase-1 (Homo sapiens, UniProt P19367); assay: SAR analysis of small molecule inhibitors of hexokinase domain containing I (HKDC1) in the hexokinase 1 selectivity assay. [Related pubchem assays (depositor defined):AID493160, AID493190]; format: functional
Chain of Hexokinase-1 (P19367 whole entry, the tested form may be a part): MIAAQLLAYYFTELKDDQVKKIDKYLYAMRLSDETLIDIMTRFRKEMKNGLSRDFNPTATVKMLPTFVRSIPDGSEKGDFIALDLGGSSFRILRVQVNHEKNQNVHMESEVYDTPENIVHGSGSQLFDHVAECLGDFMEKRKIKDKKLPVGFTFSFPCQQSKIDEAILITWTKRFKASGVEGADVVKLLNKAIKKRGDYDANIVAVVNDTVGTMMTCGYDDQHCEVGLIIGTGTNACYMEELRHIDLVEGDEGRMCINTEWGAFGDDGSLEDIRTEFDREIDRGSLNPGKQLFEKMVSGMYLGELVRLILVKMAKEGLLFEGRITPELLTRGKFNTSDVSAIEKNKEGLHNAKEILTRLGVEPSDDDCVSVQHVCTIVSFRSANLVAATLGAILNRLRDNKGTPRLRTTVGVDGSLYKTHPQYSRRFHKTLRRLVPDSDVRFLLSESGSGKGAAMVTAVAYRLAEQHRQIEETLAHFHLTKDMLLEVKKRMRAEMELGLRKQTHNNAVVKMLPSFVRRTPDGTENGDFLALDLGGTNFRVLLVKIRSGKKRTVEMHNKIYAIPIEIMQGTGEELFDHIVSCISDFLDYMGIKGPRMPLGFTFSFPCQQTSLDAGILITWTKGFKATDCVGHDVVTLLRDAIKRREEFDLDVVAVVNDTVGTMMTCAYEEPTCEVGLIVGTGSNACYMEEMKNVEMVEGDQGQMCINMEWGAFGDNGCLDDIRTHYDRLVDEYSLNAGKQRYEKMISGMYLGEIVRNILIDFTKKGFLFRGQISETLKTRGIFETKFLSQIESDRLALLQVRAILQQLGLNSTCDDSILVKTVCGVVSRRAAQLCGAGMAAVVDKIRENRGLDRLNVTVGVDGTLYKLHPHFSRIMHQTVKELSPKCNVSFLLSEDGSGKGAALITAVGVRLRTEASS

Hexokinase HKDC1 = target: T3, Hexokinase HKDC1 (Homo sapiens, UniProt Q2TB90); assay: SAR analysis of small molecule inhibitors of hexokinase domain containing I (HKDC1). [Related pubchem assays (depositor defined):AID493160, AID493190]; format: functional
T3 sequence (Q2TB90 whole entry): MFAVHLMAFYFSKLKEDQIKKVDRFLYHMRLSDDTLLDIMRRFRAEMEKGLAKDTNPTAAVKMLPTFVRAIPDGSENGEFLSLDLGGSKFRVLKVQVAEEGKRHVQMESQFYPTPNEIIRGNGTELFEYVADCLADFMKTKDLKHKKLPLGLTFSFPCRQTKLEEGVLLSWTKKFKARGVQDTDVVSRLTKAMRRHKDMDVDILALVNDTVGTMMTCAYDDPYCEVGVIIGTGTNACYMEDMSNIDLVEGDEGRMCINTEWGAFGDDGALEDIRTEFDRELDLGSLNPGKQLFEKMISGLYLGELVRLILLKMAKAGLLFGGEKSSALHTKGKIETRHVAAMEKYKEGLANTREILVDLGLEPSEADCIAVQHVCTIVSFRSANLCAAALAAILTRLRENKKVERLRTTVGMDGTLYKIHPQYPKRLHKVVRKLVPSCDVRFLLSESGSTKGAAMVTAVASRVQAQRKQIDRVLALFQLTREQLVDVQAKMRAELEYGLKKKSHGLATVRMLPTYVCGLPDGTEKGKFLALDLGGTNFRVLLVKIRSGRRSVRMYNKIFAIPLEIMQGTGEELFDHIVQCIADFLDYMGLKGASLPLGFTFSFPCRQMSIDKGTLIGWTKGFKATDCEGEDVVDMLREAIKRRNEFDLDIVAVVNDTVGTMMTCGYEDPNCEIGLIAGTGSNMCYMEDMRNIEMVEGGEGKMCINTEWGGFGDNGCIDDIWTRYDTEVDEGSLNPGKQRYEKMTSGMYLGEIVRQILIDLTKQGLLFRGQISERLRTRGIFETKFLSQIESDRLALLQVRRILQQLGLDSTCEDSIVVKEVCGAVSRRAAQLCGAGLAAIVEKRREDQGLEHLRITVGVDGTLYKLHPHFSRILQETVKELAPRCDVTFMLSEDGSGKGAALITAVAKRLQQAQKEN

[17] = microbe, parasite or virus in culture; format: functional; details: Mycobacterium tuberculosis
Bcl-2-related protein A1 = target: T4, Bcl-2-related protein A1 (Mus musculus, UniProt Q07440); format: functional;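 note: confirmatory dose–response counterscreen on Bfl-1, used to check hits from a UBC13 polyubiquitin inhibitor campaign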
T4 sequence (Q07440 whole entry): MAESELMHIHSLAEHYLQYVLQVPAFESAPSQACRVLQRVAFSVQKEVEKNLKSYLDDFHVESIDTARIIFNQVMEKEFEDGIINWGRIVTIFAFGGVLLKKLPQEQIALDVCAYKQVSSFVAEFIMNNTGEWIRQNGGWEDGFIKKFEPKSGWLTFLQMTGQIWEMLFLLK

Jurkat = assay: blockers of NF-kB activation in T cells – Jurkat, luciferase reporter, luminescence, B- and T-cell, dose response (AID 489004); format: functional, cell-based; details: Homo sapiens;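 note: NF-kB luciferase reporter Jurkat cells stimulated with PMA plus ionomycin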
[18] = target: T5, Ubiquitin-conjugating enzyme E2 N (Homo sapiens, UniProt P61088); format: functional
T5 sequence (P61088 whole entry): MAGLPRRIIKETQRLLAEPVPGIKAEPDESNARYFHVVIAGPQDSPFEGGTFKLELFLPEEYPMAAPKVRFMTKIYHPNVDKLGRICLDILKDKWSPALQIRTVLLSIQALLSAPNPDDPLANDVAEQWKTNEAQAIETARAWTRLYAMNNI

[19] = HEK-293T viability loss, compound-treated – cell-based, uHTS hits, cytotoxicity control for B/T-cell NF-kB inhibitor project, dose response (AID 489019); format: functional;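 note: IC50 reflects cytotoxicity as loss of cell viability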
[20] = target: T5, Ubiquitin-conjugating enzyme E2 N; format: functional; remark: listed apart in the source
INS1 = assay: INS-1E survival protection against cytokine death – cell-based, luminescence, retest, dose response (AID 449756); format: functional; details: Rattus norvegicus;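 note: cell death triggered by IL-1 beta plus TNF-alpha plus IFN-gamma mixture; protective hits raise ATP signal compared with cytokine alone wells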

With `CCN(Cc1ccccc1)S(=O)(=O)c1ccc(C(=O)N(CCCN(C)C)c2nc3c(C)c(C)ccc3s2)cc1` the EC50 [1] was 373 nM (active), the EC50 [2] was 5.55 µM (active) and the AC50 (CAAX prenyl protease 2 [3]) was 11.6 µM (active). The EC50 [4] was 78.9 µM (inactive), the EC50 (Mu-type opioid receptor) was 56.3 µM (inactive) and the EC50 [5] was > 92.4 µM (inactive). For the same compound, the AC50 (CAAX prenyl protease 2 [6]) was 18.9 µM (active).

With `c1ccc(P(c2ccccc2)c2ccccc2)cc1` the AC50 [7] was 14.1 µM (inconclusive).

In the case of `Cc1ccc(C(=O)NC(=S)Nc2ccccc2C(F)(F)F)cc1C`, the IC50 (Cysteine protease ATG4B) is reported as 14.6 µM (active) and the IC50 (Phospholipase A2) is reported as 6.91 µM (active).

In the case of `CCc1ccc(/C=C2/SC(=S)N(CCCC(=O)Nc3ccccc3C(=O)O)C2=O)cc1`, the IC50 [8] is reported as > 99 µM (inactive), the EC50 [9] is reported as 14 µM (inconclusive) and the EC50 [10] is reported as 4.17 µM (active). The EC50 [11] was 4.22 µM (active), the CC50 (Vero) was > 40 µM (active) and the IC50 (Genome polyprotein) was 31.4 µM (active).

For `O=C(c1ccc(Cl)cc1)N1CCN(c2ncccn2)CC1`, the AC50 (Candida albicans [12]) was 2.91 µM (active), the AC50 (Candida albicans [13]) was 3.81 µM (active) and the AC50 (Candida albicans [14]) was 17.6 µM (active). For the same compound, the AC50 (Candida albicans [15]) was 570 nM (active).

For `COc1cccc2sc(Nc3nnc(-c4ccccc4)o3)nc12`, the IC50 [16] was 12 µM (active).

For `O=C(Nc1cccc(C(F)(F)F)c1)c1cccc(NC(=O)c2ccc3nccnc3c2)c1`, the IC50 (Hexokinase-1) was > 80 µM (inactive) and the IC50 (Hexokinase HKDC1) was > 80 µM (inactive).

In the case of `CCC(C)(C)c1ccc(OCCCC[n+]2ccc(C)cc2)c(C(C)(C)CC)c1`, the EC50 [9] is reported as > 160 µM (inactive), the EC50 [10] is reported as 0.344 µM (active) and the CC50 [17] is reported as > 40 µM (active). The IC50 (Bcl-2-related protein A1) was > 20 µM (inactive), the IC50 (Jurkat) was 4.32 µM (active) and the IC50 [18] was 12.6 µM (active). The IC50 [19] was 62.2 µM (inactive), the IC50 [20] was > 20 µM (inactive) and the AC50 (INS1) was 1.26 µM (active).
